Experimental data reported in EP4361137A1, “PRUNE1 INHIBITORS AND THERAPEUTIC USE THEREOF” (CEINGE Biotecnologie Avanzate Franco Salvatore s.c. a r.l., priority 2022, dated 2024).

Key:
MMTV-Prune1/Wnt1 cells = test: Real-time cell proliferation assay (cell index, xCELLigence); type: cell-based, murine; settings: 10 µM and 100 µM, dose dependent
Experimental: D425.MED and MMTV-Prune1/Wnt1 cells were plated and treated with increasing concentrations of LEO-AA7.5(S)T for 24 hours. Water-treated cells were used as negative control for the experiments.
Cellular proliferation rates were determined with the xCELLigence system (Roche). D425-MED, MATH-Prune1/TP53-/- and MMTV-Prune1/Wnt1 cells (8 × 10^3) were treated with increasing concentrations of LEO-AA7.5(S)T, harvested, and then added to a single well of an xCELLigence E-plate 16. The proliferation rates were determined at 2-min intervals by measuring the impedance changes across the electrodes at the bottoms of the wells. These cell index values were calculated by the xCELLigence RTCA software. with vehicle-treated cells were the negative control. Impedance was measured every 2 min over 24 hours. The IC50 values were calculated through nonlinear regression analysis performed with Graph Pad Prism 9 ([inhibitor] vs. response (three parameters). Data are means ± SD of three independent experiments.

c-Prune1 (354-453) = target: T1, c-Prune1 (354-453) (Homo sapiens, UniProt Q86TP1); test: NMR and microscale thermophoresis interaction study; type: binding; settings: KD not given
T1 construct: 20 µM of c-Prune1 (354-453) protein was labelled with 60 µM of NT-647-NHS reactive dye; made in house
T1 sequence (Q86TP1 354-453): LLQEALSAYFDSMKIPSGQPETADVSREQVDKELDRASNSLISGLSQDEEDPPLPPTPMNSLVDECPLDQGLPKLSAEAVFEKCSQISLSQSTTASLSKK
Experimental: For interaction studies, samples (total volume, 600 µL) were prepared in 5-mm NMR tubes, using 1mM of AA7.5 and 10µM of C-prune1 (AA7.5/C-prune1 molar ratio of 100:1) in H2O/^2H2O mixture at pH 6.8. STD spectra were acquired with 512 scans with onresonance irradiation at -0.5 ppm for selective saturation of protein resonances and off-resonance irradiation at 30 ppm for reference spectra. A train of 40 Gaussian-shaped pulses of 50 milliseconds with 1-millisecond delay between pulses were used, for a total saturation time of 2 seconds. […]
1H and STD spectra of AA7.5 alone were acquired as reference. […] Relative STD values were calculated by dividing STD signal intensities by the intensities of the corresponding signals in a 1D 1H NMR reference spectrum of the same sample recorded with 512 scans and similarly processed. […] To determine the per residue chemical shift perturbation upon binding and account for differences in spectral widths between ^15N and ^1H resonances, weighted average chemical shift differences, ΔδHN , were calculated for the amide ^15N and ^1H resonances, using equation: ΔδHN = ([((ΔHN))^2+((0.17×Δ^15N))^2])^((1)/(2)) [formula] where ΔH and ΔN are the differences between free and bound chemical shifts. […]

[1] = test system: MATH1-Prune1/TP53-/- cells; test: Mouse cytokine antibody array on conditioned media; type: cell-based, murine; settings: 10 µM, 24 hours; n.61 cytokines measured
Experimental: The conditioned media collected from three different vehicle- or 10 µM LEO-AA7.5(S)T-treated MATH1-Prune1/TP53-/- cells after 24 hours were pooled. The relative levels of cytokines in the pooled conditioned media and murine sera were measured (RayBio C-Series Mouse Cytokine Antibody Array C3 [AAM-CYT-3-2]), according to the manufacturer protocol. Densitometric analysis was carried out using the Quantity One software (BioRad). Expression levels were normalized to the levels of the positive control spots (contained within the membrane). For each cytokine, the mean ±standard error was determined.

Acute toxicity in vivo = test: Acute toxicity in vivo; design: species or system FVB mice; settings: for hepatotoxicity or nephrotoxicity (glutamate-pyruvate transaminase 1, creatinine blood levels, blood urea nitrogen): HCl salt
Experimental: The toxicity of LEO-AA7.5(S)T was determined with 4-week-old FVB mice grouped according to body weight. Escalating doses of LEO-AA7.5(S)T (60mg or 120mg/kg/day) or vehicle (water) were administered intraperitoneally, daily for 12 days. At sacrifice, the blood and organs were collected and evaluated. Haematological and biochemical markers of hepatic and renal functions were evaluated. Data are expressed as means from four mice within each treatment group.

[2] = 60 and 120 mg/kg intraperitoneally, daily for 12 days

For COc1ccc(CNc2ncnc(N3CCC[C@H](CO)C3)n2)cc1.Cl [LEO-AA7.5(S)T, (S)-(1-(4-((4-methoxybenzyl)amino)-1,3,5-triazin-2-yl)piperidin-3-yl)methanol HCl salt], the proliferation rate (MMTV-Prune1/Wnt1 cells) was “reduction”, the “binding to Prune1 protein at its Carboxyl-terminus domain” value (c-Prune1 (354-453)) was “binds Prune1 protein” and the “number of cytokines/ chemokines significantly downregulated in the conditioned media” value [1] was 10. For the same molecule, the “liver, spleen and kidney weight, treated vs controls” value (Acute toxicity in vivo; 60mg or 120mg/kg/day intraperitoneally for 12 days) was “no decrease”, the “haematological parameters (e.g. white blood cell count)” value (Acute toxicity in vivo; [2]) was “no significant variations” and the immediate toxicity effects (Acute toxicity in vivo; [2]) was “no immediate toxicity effects”. The “hepatotoxicity or nephrotoxicity (glutamate-pyruvate transaminase 1, creatinine blood levels, blood urea nitrogen)” value (Acute toxicity in vivo; [2]) was “absence of drug-induced hepatotoxicity and renal failure” and the “hepatotoxicity or nephrotoxicity (glutamate-pyruvate transaminase 1, creatinine blood levels, blood urea nitrogen)” value (Acute toxicity in vivo; 60 and 120 mg/kg intraperitoneally, daily for 12 days, listed as (S)-(1-(4-((4-methoxybenzyl)amino)-1,3,5-triazin-2-yl)piperidin-3-yl)methanol HC) was “no signs of hepatotoxicity or nephrotoxicity”.
